# According to publication PMC5441637, “The mitochondrial SIR2 related protein 2 (SIR2RP2) impacts Leishmania donovani growth and infectivity” (PLoS Neglected Tropical Diseases, 2017):
# Molecular target: T1, SIR2 related protein 2 (LdSIR2RP2) (Leishmania donovani, UniProt A0A3S7WXV8)
# T1 construct: gene LdCL_230021600; full-length recombinant LdSIR2RP2 (complete ORF, 320 aa; MBP/His tag removed by TEV)
# Assay: […]NAD+ ADP-ribosyltransferase assay on calf thymus histones, SDS-PAGE/PhosphorImager
# Format: biochemical
# T1 sequence (A0A3S7WXV8 entry or part of it): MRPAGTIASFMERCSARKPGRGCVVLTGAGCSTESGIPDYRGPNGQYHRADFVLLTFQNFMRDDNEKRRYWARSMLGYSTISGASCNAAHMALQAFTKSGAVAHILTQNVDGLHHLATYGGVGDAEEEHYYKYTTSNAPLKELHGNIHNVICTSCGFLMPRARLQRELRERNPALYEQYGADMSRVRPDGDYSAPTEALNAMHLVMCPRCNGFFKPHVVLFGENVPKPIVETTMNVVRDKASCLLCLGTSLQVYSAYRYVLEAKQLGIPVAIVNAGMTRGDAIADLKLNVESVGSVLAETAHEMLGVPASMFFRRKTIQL
row,SMILES,"[32P]NAD+ ADP-ribosyltransferase assay on calf thymus histones, SDS-PAGE/Phospho"
1,NC(=O)c1cccnc1 [nicotinamide],~ 50 μM
2,"NC(=O)C1CCCc2c1[nH]c1ccc(Cl)cc21 (stereo not drawn) [Ex-527, 6-chloro-2,3,4,9-tetrahydro-1H-carbazole-1-carboxamide]",~ 50 μM
3,O=c1[nH]c(=S)[nH]c(-c2ccccc2)c1Cc1c(O)ccc2ccccc12 [cambinol],~ 2.5 μM
